Laboratory results reported in PubChem BioAssay AID192 (DTP/NCI, 2004).
Several values for one entry are separate records, joined by “and”; a condition that tells them apart may be missing. Equal entries are not always repeated. Inconclusive results and toxic doses are left out. The calls were made as follows: active = survival T/C of 150% or more; inactive = T/C below 125% in these data.

Tested on: BDF1 mice, B16 melanoma ip, median survival T/C
Assay: NCI In Vivo Anticancer Drug Screen. Data for tumor model B16 Melanoma (intraperitoneal) in B6D2F1 (BDF1) mice
Settings: endpoint: median survival time, higher = longer survival
Outline: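 Read-out: survival or tumor size, given as treated/control ratio. Controls received vehicle only; animals bore transplantable tumors.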

[1] = dose: 50.0 mg/kg/injection, schedule: Q04DX003 (ip), vehicle: Klucel (hydroxypropylcellulose) (HPC)
[2] = dose: 100.0 mg/kg/injection, schedule: Q01DX009 (ip), vehicle: Klucel (hydroxypropylcellulose) (HPC)
[3] = dose: 100.0 mg/kg/injection, schedule: Q04DX003 (ip), vehicle: saline with Tween-80
[4] = dose: 200.0 mg/kg/injection, schedule: Q01DX009 (ip), vehicle: Klucel (hydroxypropylcellulose) (HPC)
[5] = dose: 200.0 mg/kg/injection, schedule: Q04DX003 (ip), vehicle: saline with Tween-80
[6] = dose: 400.0 mg/kg/injection, schedule: Q04DX003 (ip), vehicle: saline with Tween-80
[7] = dose: 12.5 mg/kg/injection, schedule: Q01DX009 (ip), vehicle: Klucel (hydroxypropylcellulose) (HPC)
[8] = dose: 5.0 mg/kg/injection, schedule: Q01DX009 (ip), vehicle: saline with Tween-80
[9] = dose: 10.0 mg/kg/injection, schedule: Q01DX009 (ip), vehicle: saline with Tween-80
[10] = dose: 20.0 mg/kg/injection, schedule: Q01DX009 (ip), vehicle: saline with Tween-80
[11] = dose: 12.5 mg/kg/injection, schedule: Q01DX009 (ip), vehicle: saline with Tween-80
[12] = dose: 25.0 mg/kg/injection, schedule: Q01DX009 (ip), vehicle: saline with Tween-80
[13] = dose: 50.0 mg/kg/injection, schedule: Q01DX009 (ip), vehicle: saline with Tween-80
[14] = dose: 100.0 mg/kg/injection, schedule: Q01DX009 (ip), vehicle: saline with Tween-80
[15] = dose: 200.0 mg/kg/injection, schedule: Q01DX009 (ip), vehicle: saline with Tween-80
[16] = dose: 50.0 mg/kg/injection, schedule: Q01DX009 (ip), vehicle: Klucel (hydroxypropylcellulose) (HPC)
[17] = dose: 25.0 mg/kg/injection, schedule: Q01DX009 (ip), vehicle: Klucel (hydroxypropylcellulose) (HPC)

Measured: T/C

CC1(CO)C(O)CCC2(C)C1CCC1CC3CC12CCC3(O)CO (stereo not given)
active: dose: 50.0 mg/kg/injection, schedule: Q03HX020 (ip), vehicle: Klucel (hydroxypropylcellulose) (HPC) 176 % of control | dose: 400.0 mg/kg/injection, schedule: Q04DX003 (ip), vehicle: Klucel (hydroxypropylcellulose) (HPC) 163 % of control
inactive: dose: 0.78 mg/kg/injection, schedule: Q03HX020 (oral), vehicle: Klucel (hydroxypropylcellulose) (HPC) 97 % of control | dose: 1.56 mg/kg/injection, schedule: Q03HX020 (oral), vehicle: Klucel (hydroxypropylcellulose) (HPC) 107 % of control | dose: 3.12 mg/kg/injection, schedule: Q03HX020 (ip), vehicle: Klucel (hydroxypropylcellulose) (HPC) 89 % of control | dose: 3.12 mg/kg/injection, schedule: Q03HX020 (oral), vehicle: Klucel (hydroxypropylcellulose) (HPC) 99 % of control | dose: 6.25 mg/kg/injection, schedule: Q03HX020 (ip), vehicle: Klucel (hydroxypropylcellulose) (HPC) 108 % of control | dose: 6.25 mg/kg/injection, schedule: Q03HX020 (oral), vehicle: Klucel (hydroxypropylcellulose) (HPC) 102 % of control | dose: 12.5 mg/kg/injection, schedule: Q03HX020 (ip), vehicle: Klucel (hydroxypropylcellulose) (HPC) 118 % of control | dose: 12.5 mg/kg/injection, schedule: Q03HX020 (oral), vehicle: Klucel (hydroxypropylcellulose) (HPC) 99 % of control | dose: 25.0 mg/kg/injection, schedule: Q03HX020 (ip), vehicle: Klucel (hydroxypropylcellulose) (HPC) 115 % of control | dose: 25.0 mg/kg/injection, schedule: Q03HX020 (oral), vehicle: Klucel (hydroxypropylcellulose) (HPC) 98 % of control | dose: 25.0 mg/kg/injection, schedule: Q04DX003 (ip), vehicle: Klucel (hydroxypropylcellulose) (HPC) 100 % of control | dose: 50.0 mg/kg/injection, schedule: Q03HX020 (oral), vehicle: Klucel (hydroxypropylcellulose) (HPC) 104 % of control | [1] 105 % of control | dose: 100.0 mg/kg/injection, schedule: Q03HX020 (oral), vehicle: Klucel (hydroxypropylcellulose) (HPC) 117 % of control | dose: 100.0 mg/kg/injection, schedule: Q04DX003 (ip), vehicle: Klucel (hydroxypropylcellulose) (HPC) 117 % of control

COc1ccc(-c2c(CC(=O)O)c3cc(OC)ccc3n2Cc2ccc(Cl)cc2)cc1
inactive: [2] 95 % of control | [3] 100 % of control | [4] 94 % of control | [5] 95 % of control | dose: 400.0 mg/kg/injection, schedule: Q01DX009 (ip), vehicle: Klucel (hydroxypropylcellulose) (HPC) 95 % of control | [6] 95 % of control

O=C(CBr)c1ccc(F)cc1
inactive: dose: 3.12 mg/kg/injection, schedule: Q01DX009 (ip), vehicle: Klucel (hydroxypropylcellulose) (HPC) 106 % of control | dose: 6.25 mg/kg/injection, schedule: Q01DX009 (ip), vehicle: Klucel (hydroxypropylcellulose) (HPC) 91 % of control | [7] 99 % of control

O=C1C(=O)c2ccccc2C(O)=C1CCCc1ccc(OCc2ccccc2)cc1
inactive: [8] 101 % of control | [9] 100 % of control | [10] 103 % of control

O=C(O)c1cc(-c2ccc(Cl)cc2)nc2c(-c3ccccc3)cccc12
inactive: [11] 87 % of control | [12] 105 % of control | [13] 87 % of control and 94 % of control | [14] 86 % of control | [15] 87 % of control

NC(N)=Nc1ccc(C(=O)Nc2ccc([N+](=O)[O-])cc2)cc1
inactive: [16] 98 % of control | [2] 98 % of control | [4] 94 % of control

CCCC(=O)O.CCCC(=O)O.CCCC(=O)O.CCCC(=O)O.[Rh].[Rh]
inactive: dose: 46.7 micrograms/kg/injection, schedule: Q08HX018 (ip), vehicle: saline + alcohol 98 % of control | dose: 77.8 micrograms/kg/injection, schedule: Q08HX018 (ip), vehicle: saline + alcohol 97 % of control | dose: 93.3 micrograms/kg/injection, schedule: Q01DX009 (ip), vehicle: saline + alcohol 98 % of control | dose: 156.0 micrograms/kg/injection, schedule: Q01DX009 (ip), vehicle: saline + alcohol 98 % of control | dose: 216.0 micrograms/kg/injection, schedule: Q08HX018 (ip), vehicle: saline + alcohol 88 % of control | dose: 259.0 micrograms/kg/injection, schedule: Q01DX009 (ip), vehicle: saline + alcohol 102 % of control

Cc1cnccc1Br
inactive: dose: 25.0 mg/kg/injection, schedule: Q01DX009 (ip), vehicle: water 96 % of control | dose: 50.0 mg/kg/injection, schedule: Q01DX009 (ip), vehicle: water 97 % of control

Nc1nc(N)c(-c2ccc(Cl)c(Cl)c2)c(CP(Cl)(Cl)(Cl)Br)n1
inactive: dose: 6.3 mg/kg/injection, schedule: Q01DX009 (ip), vehicle: Klucel (hydroxypropylcellulose) (HPC) 112 % of control | [7] 111 % of control | [17] 115 % of control | [16] 123 % of control

O=C(NO)N/N=C/c1ccccc1
inactive: [3] 106 % of control | [5] 104 % of control | [6] 90 % of control

CCCCNC(C)(C)C(SSC(c1ccc(Cl)cc1)C(C)(C)NCCCC)c1ccc(Cl)cc1 (stereo not given)
inactive: dose: 6.25 mg/kg/injection, schedule: Q01DX009 (ip), vehicle: saline 109 % of control | dose: 12.5 mg/kg/injection, schedule: Q01DX009 (ip), vehicle: saline 97 % of control | dose: 25.0 mg/kg/injection, schedule: Q01DX009 (ip), vehicle: saline 88 % of control

COc1ccc(N=NNc2ccc(OC)cc2)cc1
inactive: [8] 106 % of control | dose: 6.25 mg/kg/injection, schedule: Q01DX009 (ip), vehicle: saline with Tween-80 90 % of control and 94 % of control | dose: 6.25 mg/kg/injection, schedule: Q04DX003 (ip), vehicle: saline with Tween-80 97 % of control and 105 % of control | [9] 109 % of control | [11] 86 % of control and 94 % of control | dose: 12.5 mg/kg/injection, schedule: Q04DX003 (ip), vehicle: saline with Tween-80 107 % of control and 113 % of control | dose: 16.5 mg/kg/injection, schedule: Q04DX003 (ip), vehicle: saline with Tween-80 95 % of control | [10] 109 % of control | [12] 93 % of control and 94 % of control | dose: 25.0 mg/kg/injection, schedule: Q04DX003 (ip), vehicle: saline with Tween-80 100 % of control and 107 % of control | dose: 37.5 mg/kg/injection, schedule: Q04DX003 (ip), vehicle: saline with Tween-80 100 % of control | dose: 40.0 mg/kg/injection, schedule: Q01DX009 (ip), vehicle: saline with Tween-80 112 % of control | [13] 97 % of control | dose: 50.0 mg/kg/injection, schedule: Q04DX003 (ip), vehicle: saline with Tween-80 110 % of control

O=C(Nc1cccc(Cl)c1)Nc1cc(Cl)ccc1Cl
inactive: [14] 100 % of control | [15] 89 % of control | dose: 400.0 mg/kg/injection, schedule: Q01DX009 (ip), vehicle: saline with Tween-80 86 % of control

COc1cccnc1/C=N/NC(N)=S
inactive: dose: 1.5 mg/kg/injection, schedule: Q01DX009 (ip), vehicle: saline with Tween-80 98 % of control | dose: 3.0 mg/kg/injection, schedule: Q01DX009 (ip), vehicle: saline with Tween-80 93 % of control | dose: 6.0 mg/kg/injection, schedule: Q01DX009 (ip), vehicle: saline with Tween-80 95 % of control | dose: 12.0 mg/kg/injection, schedule: Q01DX009 (ip), vehicle: saline with Tween-80 98 % of control

Cn1cnc([N+](=O)[O-])c1S(=O)(=O)NCN1CCOCC1
inactive: [7] 98 % of control | [17] 96 % of control | [16] 97 % of control | [2] 94 % of control

Cc1ccc(C)c(NC(=O)Nc2ccccc2C)c1
inactive: [1] 87 % of control | dose: 200.0 mg/kg/injection, schedule: Q04DX003 (ip), vehicle: Klucel (hydroxypropylcellulose) (HPC) 87 % of control

CNCCNc1ccc(NCCNC)c2c1C(=O)c1ccccc1C2=O
active: dose: 2.0 mg/kg/injection, schedule: Q01DX009 (ip), vehicle: acid diluted with saline 156 % of control | dose: 4.0 mg/kg/injection, schedule: Q01DX009 (ip), vehicle: acid diluted with saline 230 % of control | dose: 8.0 mg/kg/injection, schedule: Q01DX009 (ip), vehicle: acid diluted with saline 231 % of control
